Source: article PMC5823691 (Journal of medicinal chemistry, 2017)
Values after ≈ are worked out from the molar mass of the structure shown.

Tests used:
[1] = molecular target: human CD40–CD40L interaction (Homo sapiens, UniProt P29965)
[2] = system: Mac-1 (αMβ2)–CD40L interaction; experiment: cell-free Mac-1–CD40L binding inhibition assay; set-up: species or system human; conditions: compared with CD40–CD40L activity; Figure S1
[3] = system: THP-1 human myeloid cells; experiment: MTT cytotoxicity assay; type: cell-based; conditions: THP-1 cells, 48 h; concentrations of up to 100 and 200 µM; Figure S3
[4] = system: THP-1 human myeloid cells; conditions: THP-1 cells, 0.5 µg/mL MegaCD40L, 48 h; Figure S2
[5] = system: Salmonella typhimurium TA-100; experiment: Muta-Chromplate mutagenicity assay; conditions: S. typhimurium TA-100; concentrations tested of up to 500 µM; Figure S4
[6] = water solubility; type: physicochemical; conditions: distilled water, Estimated water solubility, saturated solution
[7] = system: Balb/c skin allografts in C57BL/6 mice; conditions: two week treatment, 30 mg/kg daily s.c. in 20% HPβCD

human CD40–CD40L interaction, sequence (P29965 113-261 limits assumed): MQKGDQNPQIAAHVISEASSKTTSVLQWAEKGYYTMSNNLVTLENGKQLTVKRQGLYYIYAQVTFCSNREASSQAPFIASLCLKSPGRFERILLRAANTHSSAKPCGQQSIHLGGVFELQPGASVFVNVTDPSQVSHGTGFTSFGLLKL

CSCC[C@H](NC(=O)[C@@H](NC(=O)[C@H](Cc1ccc(O)cc1)NC(=O)[C@H](Cc1ccc(O)cc1)NC(=O)CNC(=O)[C@H](CCCCN)NC(=O)[C@H](CCCCN)NC(=O)[C@H](C)NC(=O)[C@H](Cc1c[nH]c2ccccc12)NC(=O)[C@H](CCC(N)=O)NC(=O)[C@H](CC(C)C)NC(=O)[C@@H](N)C(C)C)[C@@H](C)O)C(=O)N[C@@H](CCCCN)C(=O)N[C@@H](CO)C(=O)N[C@@H](CC(N)=O)C(=O)O [mouse KGYY15]
CD40 IC50 ([1]; cell-free, soluble CD40L binding to plate-coated CD40, Hill slope 1 fit): no inhibitory activity

Nc1ccc(C(=O)Nc2ccc(-c3ccc(C(=O)Nc4cccc5cccc(S(=O)(=O)O)c45)cc3)cc2)cc1 [Compound 8, 8-(4’-(4-Aminobenzamido)biphenyl-4-ylcarboxamido)naphthalene-1-sulfonic acid]
increase of inhibitory potency in Mac-1–CD40L assay [2]: about 10 fold

O=C(Nc1ccc(-c2ccc(C(=O)Nc3ccc(C(=O)O)c4ccccc34)cc2)cc1)c1ccc([N+](=O)[O-])cc1 [Compound 11, 4-(4’-(4-Nitrobenzamido)biphenyl-4-ylcarboxamido)-1-naphthoic acid]
cytotoxicity (MTT, viability) [3]: significant effect on viability at 100 µM | effect on CD40L-induced MHC-II upregulation [4]: concentration-dependently inhibited

COC(=O)c1ccc(C(=O)Nc2ccc(-c3ccc(C(=O)Nc4cccc5cccc(S(=O)(=O)O)c45)cc3)cc2)cc1 [Compound 10, 8-(4’-(4-(Methoxycarbonyl)benzamido)biphenyl-4-ylcarboxamido)naphthalene-1-sulfonic acid]
genotoxic potential (Ames test) [5]: neither of these compounds was found to have genotoxic potential | solubility [6]: 164 µg/mL (≈ 282 µM) | effect on CD40L-induced MHC-II upregulation [4]: concentration-dependently inhibited | toxicity during chronic treatment [7]: no signs of toxicity

O=C(Nc1ccc(-c2ccc(C(=O)Nc3cccc4cccc(S(=O)(=O)O)c34)cc2)cc1)c1ccc([N+](=O)[O-])cc1 [Compound 6, 8-(4’-(4-Nitrobenzamido)biphenyl-4-ylcarboxamido)naphthalene-1-sulfonic acid]
genotoxic potential (Ames test) [5]: neither of these compounds was found to have genotoxic potential | effect on CD40L-induced MHC-II upregulation [4]: concentration-dependently inhibited

O=C(Nc1ccc2c(O)c(/N=N/c3ccc(N=Nc4ccc(S(=O)(=O)O)cc4)cc3S(=O)(=O)O)c(S(=O)(=O)O)cc2c1)Nc1ccc2c(O)c(/N=N/c3ccc(N=Nc4ccc(S(=O)(=O)O)cc4)cc3S(=O)(=O)O)c(S(=O)(=O)O)cc2c1 (stereo in doubt) [Compound 1, direct red 80, reference compound]
increase of inhibitory potency in Mac-1–CD40L assay [2]: about 10 fold | ligand efficiency (LE) ([1]; binding free energy per non-hydrogen atom): 0.4 kJ/atom
